# US20210015857A1, “METHOD FOR IMMUNOTHERAPY DRUG TREATMENT” (The University of Western Australia, priority 2018, published 2021)
# How the values were obtained:
# [1] = system: Renca kidney cancer tumours; assay: Oral retinoids combined with ICB in Renca kidney cancer-bearing mice; type: in vivo, mouse; details: retinoid oral 6 days from day 9, ICB days 12, 14, 16 (FIG. 24)
# Experimental: The following retinoids and dosages were employed: Bexarotene (Saphire Bioscience) was dosed at 100 mg/kg; tretinoin and isotretinoin (Sigma-Aldrich) were all dosed at 10 mg/kg.
# [2] = system: AB1-HA mesothelioma tumours; assay: Tretinoin combined with ICB in AB1-HA tumour-bearing mice, tumour growth; type: in vivo, mouse
# Experimental: […] The administration of tretinoin to the mice started either 3 days before ICB or at the same time as the ICB (arm 6). Tretinoin was dosed at three dosages; 10 mg/kg (arm 3), 5 mg/kg (arm 4) or 1 mg/kg (arm 5) and was given for 9 days in total.
# CT26 colorectal tumours = assay: pSTAT1 immunohistochemistry of tumours after tretinoin; type: in vivo, mouse; details: tretinoin 10 mg/kg (FIG. 22A, B)
# Experimental: For immunohistochemical staining of STAT1 and pSTAT1, slides of 4-μm thickness were cut from formalin-fixed, parafin-embedded (FFPE) tissue blocks. Subsequently, slides were deparafinized in two changes of xylene for about 5 min followed by rehydration in changes of 100%, 96%, 70% and 40% ethanol and distilled water. Next, for STAT1 staining, antigen retrieval using 10 mM citrate buffer (pH 6.0) was performed for about 10 min at 121° C. using a pressure cooker (the PT-module, Thermo scientific, labvision). For pSTAT1 staining, slides were sub-boiled in 1 M EDTA buffer (pH 8.0) for about 10 minutes in a microwave. Slides were rinsed in TBST and the endogenous peroxidase was blocked using 3% hydrogen peroxidase (Sigma) in distilled water. Sections were washed again in TBST and blocked with goat serum (Vectastain) diluted in PBS as per manufacturer's instructions. Primary antibody, STAT1 or pSTAT1 (Cell Signaling, dilution: 1/800 and 1/200 respectively), was incubated for 60 minutes at room temperature (RT). Sections were washed and secondary antibody, goat anti-Rb IgG-HRP (Santa Cruz), was incubated for about 30 minutes at RT, before washing again. Betazoid DAB chromogen (Biocare Medical) was prepared as per manufacturer's instructions. Chromogen was applied, sections were monitored for the development of a brown colour and the reaction was stopped with H2O. […]
# Renca kidney cancer = assay: pSTAT1 flow cytometry of tumours after tretinoin; type: in vivo, mouse; details: tretinoin (FIG. 22C)
# Experimental: (§1) For detection of phospho-STAT1, dissociated tumours were stained with surface antibodies, fixed with 1.5% formaldehyde for 10 minutes, then permeabilized with ice-cold methanol at 4° C. for 10 minutes. Cells were stained with a rabbit-anti-pSTAT1 antibody (Tyr701) -PE (Cell Signaling Technology) for 30 minutes at room temperature (RT).
# To test whether retinoids induce the ICB response-associated phenotype characterised by increased NK cells, inflammatory markers and pSTAT1 positive leukocytes in the tumour, Renca kidney cancer-bearing mice were treated for […] with oral tretinoin (10 mg/kg) starting on day 12 and harvested tumours on day 15 for flow cytometry. In subsequent experiments AB1-HA mesothelioma or CT26 colorectal cancer tumour-bearing mice were treated with tretinoin for 3 days at 10 mg/kg i.p., starting on day 10 and harvested tumours on day 13 for flow cytometry and immunohistochemistry.
# urothelial cancer = details: 348 urothelial cancer patients; cited from earlier work
# melanoma = melanoma cohort n=33; cited from earlier work
# [3] = system: AE17 mesothelioma tumours; assay: Poly(I:C) pretreatment followed by ICB with or without IFNAR blocking antibody, tumour growth; type: in vivo, mouse
# Experimental: To test whether the mechanism underlying the priming effect of Poly-I:C was mediated through IFN alpha/beta induction (as discussed in Example 6), priming experiments were repeated while adding blocking antibodies against the IFN alpha/beta receptor (IFNAR). C57BL/6 AE17 mesothelioma tumour-bearing mice were treated with CPB on day 22 after tumour inoculation, with or without pretreatment of 3 days of 50 μg s.c. Poly-I:C in the tumour area (day 17-19), with or without blocking antibodies against IFNAR (e.g., […] monoclonal antibody MAR1-5A3 as sourced from BiXcell) (0.5 mg i.p., 3 times/week) starting at the same time.
# [4] = system: AE17 mesothelioma tumours; assay: Flow cytometry of AE17 tumours after intratumoural IFN alpha or poly(I:C) pretreatment; type: in vivo, mouse; details: intratumoural 3 days, vs PBS (FIG. 17)
# Experimental: For flow cytometry, tumours were harvested and immediately submerged in cold PBS, cut into 1-2 mm pieces with a scalpel blade and dissociated using the GentleMACS system. Fc block (anti-CD16/CD32, BD) was used for 10 minutes on ice. UV Zombie live/dead (Biolegend) was used to discriminate live cells. Cells were permeabilized and fixed using FoxP3 fix/Perm buffer kit (Biolegend) before addition of antibodies for 20 minutes at RT. See Supplementary Table 2 for antibody details. Cells were kept in stabilizing fixative until acquisition. Data were acquired on a BD Fortessa flow cytometer and analyzed using FlowJo software (TreeStar).
# as §1
# To verify the potential of recombinant IFN alpha to induce the response-associated phenotype (i.e., to sensitise the tumour cellular microenvironment to ICB) similarly to Poly-I:C, AE17 mesothelioma tumour-bearing mice were pretreated with Poly-I:C or recombinant IFN alpha (: R&D systems) intratumourally for 3 days (or PBS control). […]
molecule,measurement,setting,value
C=C(c1ccc(C(=O)O)cc1)c1cc2c(cc1C)C(C)(C)CCC2(C)C [bexarotene],"percentage of complete regression after combination therapy with ICB, compared to ICB alone",[1],increased percentage of complete regression
"CC1=C(/C=C/C(C)=C/C=C/C(C)=C\C(=O)O)C(C)(C)CCC1 [isotretinoin, 13-cis-retinoic acid]","percentage of complete regression after combination therapy with ICB, compared to ICB alone",[1],increased percentage of complete regression
"CC1=C(/C=C/C(C)=C/C=C/C(C)=C/C(=O)O)C(C)(C)CCC1 [tretinoin, all-trans retinoic acid]","efficacy of ICB, retinoid before ICB vs at same time as ICB",[2]; AB1-HA (FIG. 21),markedly improved the efficacy of ICB compared to when the retinoid was administered at same time as ICB
same,efficacy of combination with anti-PD-L1 antibody alone as ICB,"[2]; AB1-HA, tretinoin 10 mg/kg i.p. 9 days from day 6, anti-PD-L1 days 8, 10, 12 (FIG. 23)",more efficacious than use of the antibody alone
same,response of the tumours to ICB,"[2]; AB1-HA, tretinoin 10, 5 or 1 mg/kg for 9 days starting 3 days before anti-CTLA4/anti-PD-L1 (FIG. 21)",improved the response of the tumours to ICB in a dose-dependent manner
same,pSTAT1 immune cell infiltrates in tumours (immunohistochemistry),CT26 colorectal tumours,increased patches of pSTAT1 immune cell infiltrates
same,pSTAT1 positive leukocytes in tumours (flow cytometry),Renca kidney cancer,"increased pSTAT1 positive leukocytes in tumours, particularly in MHC class II positive cells"
atezolizumab: anti-PD-L1 antibody,"best response: complete responders (CR), number of patients",urothelial cancer,25
same,"best response: partial responders (PR), number of patients",urothelial cancer,43
same,"best response: progressors (PD), number of patients",urothelial cancer,167
same,"best response: stable disease (SD), number of patients",urothelial cancer,63
nivolumab: anti-PD1 antibody,"non-responsive (PD), number of patients",melanoma,23
same,"responsive (CR and PR), number of patients",melanoma,10
olyinosinic:polycytidylic acid [poly(I:C)],beneficial effect of pretreatment under IFNAR blockade,[3]; cotreatment with IFNAR blocking antibodies (FIG. 16),abrogated
same,tumour growth,"[3]; poly(I:C) 3 days before ICB, vs ICB alone (FIG. 16)",clear delay in tumour growth compared to ICB alone
same,NK infiltration (NK cells of all leukocytes),[4],increased NK cell numbers
same,STAT1 phosphorylation (pSTAT1 activation),[4],pSTAT1 activation
